According to PMC1977804, “Somatostatin binding in normal and malignant human gastrointestinal mucosa” (British Journal of Cancer, 1992):
Like-named read-outs stand apart in the source and are kept apart here. Bridges are numbered along the chain shown (N, C = ends). Where no end group is shown, it is not given here. The star is where a group is joined. 125I = [125I]*

Tests used:
[1] = test system: somatostatin receptors, rat cerebral cortex membranes; test: competitive displacement of 125I-tyr-11-somatostatin-14, rat cerebral cortex plasma membranes (positive control); format: binding, rat (Wistar)
Excerpt: Br. J. Cancer (1992), 66, 391 395 ? Macmillan Press Ltd., 1992~~~~~~~~~~~~~~~~~~~~~~~~~~~~~~~~~~~~~~~~~~~~~~~~~~~~~~~~~~~~~~ Somatostatin binding in normal and malignant human gastrointestinal mucosa G.V. Miller, S.M. Farmery, L.F. Woodhouse & J.N. Primrose University Department of Surgery, St. James's University Hospital, Beckett Street, Leeds LS9 7TF, UK. Summary Somatostatin is a regulatory peptide implicated in the control of cellular proliferation in epithelial tissues and this regulation may occur directly via membrane bound receptor activation. The aim of this study was to investigate somatostatin binding in human gastrointestinal cancer and normal mucosa. Plasma membranes were prepared from specimens of tumour and normal mucosa from 51 patients undergoing surgical resection for malignancy (28 gastric, 23 colorectal). Using a competitive displacement assay, specific '251-tyrosine -1 -somatostatin-14 binding to plasma membranes was assessed and characterised in terms of receptor affinity (Kd) and maximum binding capacity (Bmax) as determined by Scatchard analysis. […] Similar affinity and binding capacity was demonstrable in normal mucosal samples. […] The functional significance of these low affinity binding sites requires elucidation to determine whether long-acting somatostatin analogues may have therapeutic benefit in gastrointestinal malignancy. Hormonal manipulation, by surgical or medical methods, has been used extensively in therapy for carcinoma of the breast, prostate, thyroid and in certain gut endocrine tumours (Horowitz et al., 1975; Higgins et al., 1941; Crile, 1957; Osei et al., 1985). There is, however, no currently defined role for endocrine therapy in non-endocrine gastrointestinal cancer. […] Any benefit from systemic therapy is usually abrogated by systemic toxicity (Rake et al., 1979; Engstrom et al., 1985; Bleiberg, 1990). For this reason a non-toxic, effective, treat- ment modality would be of value to improve the outlook for those patients with advanced disease. There is increasing evidence that tumours arising from the gastrointestinal tract are, at least in part, hormone depen- dent. Numerous hormones have now been implicated in the pathogenesis and development of gastrointestinal malig- nancy, including gastrin, epidermal growth factor, entero- pancreatic hormones and oestrogenic steroids (Sirinek et al., 1985; Watson et al., 1988; Li et al., 1980; Howatson & Carter, 1985; McMichael et al., 1980). […] Somatostatin and its analogues are good candidates for use as endocrine agents in the treatment of gastrointestinal cancer. […]

[2] = test system: somatostatin binding sites, gastric body mucosal plasma membranes; test: competitive displacement of 125I-tyr-11-somatostatin-14, normal gastric body mucosa plasma membranes; design: species or system human; settings: 21 of 28 preparations, including mucosa of the patient with high affinity tumour, Scatchard/LIGAND, pH 7.4, 1 h, 35 °C, median (quartiles)
Excerpt: (§1) Br. J. Cancer (1992), 66, 391 395 ? Macmillan Press Ltd., 1992~~~~~~~~~~~~~~~~~~~~~~~~~~~~~~~~~~~~~~~~~~~~~~~~~~~~~~~~~~~~~~ Somatostatin binding in normal and malignant human gastrointestinal mucosa G.V. Miller, S.M. Farmery, L.F. Woodhouse & J.N. Primrose University Department of Surgery, St. James's University Hospital, Beckett Street, Leeds LS9 7TF, UK. Summary Somatostatin is a regulatory peptide implicated in the control of cellular proliferation in epithelial tissues and this regulation may occur directly via membrane bound receptor activation. The aim of this study was to investigate somatostatin binding in human gastrointestinal cancer and normal mucosa. Plasma membranes were prepared from specimens of tumour and normal mucosa from 51 patients undergoing surgical resection for malignancy (28 gastric, 23 colorectal). Using a competitive displacement assay, specific '251-tyrosine -1 -somatostatin-14 binding to plasma membranes was assessed and characterised in terms of receptor affinity (Kd) and maximum binding capacity (Bmax) as determined by Scatchard analysis. […] Similar affinity and binding capacity was demonstrable in normal mucosal samples. […] The functional significance of these low affinity binding sites requires elucidation to determine whether long-acting somatostatin analogues may have therapeutic benefit in gastrointestinal malignancy. […]

[3] = test system: somatostatin binding sites, normal colonic mucosa plasma membranes; test: competitive displacement of 125I-tyr-11-somatostatin-14, normal colonic mucosa plasma membranes; design: species or system human; settings: 15 of 23 preparations; Scatchard/LIGAND; pH 7.4, 1 h, 35 °C; median (quartiles)
Excerpt: as §1

[4] = test system: somatostatin binding sites, colorectal adenocarcinoma plasma membranes; test: competitive displacement of 125I-tyr-11-somatostatin-14, human colorectal adenocarcinoma plasma membranes; settings: for Bmax: Table I, colorectal
Excerpt: (§2) Br. J. Cancer (1992), 66, 391 395 ? Macmillan Press Ltd., 1992~~~~~~~~~~~~~~~~~~~~~~~~~~~~~~~~~~~~~~~~~~~~~~~~~~~~~~~~~~~~~~ Somatostatin binding in normal and malignant human gastrointestinal mucosa G.V. Miller, S.M. Farmery, L.F. Woodhouse & J.N. Primrose University Department of Surgery, St. James's University Hospital, Beckett Street, Leeds LS9 7TF, UK. Summary Somatostatin is a regulatory peptide implicated in the control of cellular proliferation in epithelial tissues and this regulation may occur directly via membrane bound receptor activation. The aim of this study was to investigate somatostatin binding in human gastrointestinal cancer and normal mucosa. Plasma membranes were prepared from specimens of tumour and normal mucosa from 51 patients undergoing surgical resection for malignancy (28 gastric, 23 colorectal). Using a competitive displacement assay, specific '251-tyrosine -1 -somatostatin-14 binding to plasma membranes was assessed and characterised in terms of receptor affinity (Kd) and maximum binding capacity (Bmax) as determined by Scatchard analysis. […] Similar affinity and binding capacity was demonstrable in normal mucosal samples. […] The functional significance of these low affinity binding sites requires elucidation to determine whether long-acting somatostatin analogues may have therapeutic benefit in gastrointestinal malignancy. Hormonal manipulation, by surgical or medical methods, has been used extensively in therapy for carcinoma of the breast, prostate, thyroid and in certain gut endocrine tumours (Horowitz et al., 1975; Higgins et al., 1941; Crile, 1957; Osei et al., 1985). There is, however, no currently defined role for endocrine therapy in non-endocrine gastrointestinal cancer. […] Any benefit from systemic therapy is usually abrogated by systemic toxicity (Rake et al., 1979; Engstrom et al., 1985; Bleiberg, 1990). For this reason a non-toxic, effective, treat- ment modality would be of value to improve the outlook for those patients with advanced disease. There is increasing evidence that tumours arising from the gastrointestinal tract are, at least in part, hormone depen- dent. Numerous hormones have now been implicated in the pathogenesis and development of gastrointestinal malig- nancy, including gastrin, epidermal growth factor, entero- pancreatic hormones and oestrogenic steroids (Sirinek et al., 1985; Watson et al., 1988; Li et al., 1980; Howatson & Carter, 1985; McMichael et al., 1980). […] Somatostatin and its analogues are good candidates for use as endocrine agents in the treatment of gastrointestinal cancer. The native peptide is widely distributed in the body and, amongst its many inhibitory actions, has a putative role as an anti-proliferative agent in both normal (Lehy et al., 1979) and malignant (Singh et al., 1986) tissue. The mechanisms involved in this anti-proliferative action have not, as yet, been confirmed. Both the native peptide and its analogues act at the somatotrophs of the anterior pituitary suppressing growth hormone production and release (Adrian et al., 1981). This may influence the proliferation of target tissues directly or may result in a substantial reduction in local growth factor release (Kirkegaard et al., 1984). Further, the production of other trophic hormones such as gastrin Correspondence: J.N. Primrose, University Department of Surgery, Clinical Sciences Building, St James's University Hospital, Beckett St, Leeds LS9 7TF, UK. Received 18 November 1991; and in revised form 9 March 1992. and insulin, either from normal cells or from hormonally active tumour cells, could be suppressed by somatostatin (Morris et al., 1988). The most interesting mechanism, how- ever, involves the interaction of the peptide with specific membrane bound receptors upon proliferating cells. […]

[5] = test system: somatostatin binding sites, human gastric adenocarcinoma membranes; test: competitive displacement of 125I-tyr-11-somatostatin-14, human gastric adenocarcinoma plasma membranes
Excerpt: as §2

[6] = native peptide; no reference printed for this sentence; cited from earlier work
Excerpt: Br. J. Cancer (1992), 66, 391 395 ? Macmillan Press Ltd., 1992~~~~~~~~~~~~~~~~~~~~~~~~~~~~~~~~~~~~~~~~~~~~~~~~~~~~~~~~~~~~~~ Somatostatin binding in normal and malignant human gastrointestinal mucosa G.V. Miller, S.M. Farmery, L.F. Woodhouse & J.N. Primrose University Department of Surgery, St. James's University Hospital, Beckett Street, Leeds LS9 7TF, UK. Summary Somatostatin is a regulatory peptide implicated in the control of cellular proliferation in epithelial tissues and this regulation may occur directly via membrane bound receptor activation. The aim of this study was to investigate s ...

somatostatin-14
Bmax ([1]; Figure 1 inset, single representative experiment, Scatchard plot by LIGAND): 0.21 pmol mg-1 protein | Kd ([1]; Figure 1 inset, single representative experiment, Scatchard plot by LIGAND, read-out: Kd): 0.92 nM | Kd ([1]; Scatchard/LIGAND, HEPES-KOH pH 7.4, 1 h, 35 °C, median (range), read-out: receptor affinity (Kd)): 0.85 nM | Bmax, low affinity high capacity binding [2]: 3.9 (1.2-6.6) pmol mg-1 protein | Kd ([2]; read-out: Kd, low affinity high capacity binding): 180 nM | Bmax [3]: 0.7 (0.3-3.5) pmol mg-1 protein | Kd [3]: 130 nM | Bmax, low affinity high capacity binding ([4]; 17 of 23 preparations, Scatchard/LIGAND, pH 7.4, 1 h, 35 °C, median (quartiles)): 1.8 (1.2-2.9) pmol mg-1 protein | Bmax ([4]; grade Mod, pH 7.4, 1 h, 35 °C, median (quartiles)): 1.72 (1.30-2.69) pmol mg-1 protein | Bmax ([4]; grade Poor, pH 7.4, 1 h, 35 °C, median (quartiles)): 1.81 (0.74-2.87) pmol mg-1 protein | Bmax ([4]; grade Well, pH 7.4, 1 h, 35 °C, median (quartiles)): 1.75 (0.49-2.99) pmol mg-1 protein | Bmax ([4]; site: (R) Colon, pH 7.4, 1 h, 35 °C, median (quartiles)): 2.99 (2.12-3.94) pmol mg-1 protein | Bmax ([4]; site: Rectum, pH 7.4, 1 h, 35 °C, median (quartiles)): 1.67 (1.02-2.78) pmol mg-1 protein | Bmax ([4]; site: Sigmoid, pH 7.4, 1 h, 35 °C, median (quartiles)): 0.49 (0.11 -1.75) pmol mg-1 protein | Bmax ([4]; stage A (Dukes), pH 7.4, 1 h, 35 °C, one sample): 3.40 pmol mg-1 protein | Bmax ([4]; stage B (Dukes), pH 7.4, 1 h, 35 °C, median (quartiles)): 1.72 (1.30-2.99) pmol mg-1 protein | Bmax ([4]; stage C (Dukes), pH 7.4, 1 h, 35 °C, median (quartiles)): 1.48 (0.62-2.41) pmol mg-1 protein | Bmax, low affinity high capacity binding ([4]; abstract, 17 colorectal cancers, Scatchard analysis): 1.8 pmol mg-1 protein | Kd ([4]; abstract, 17 colorectal cancers, Scatchard analysis, read-out: Kd, low affinity binding): 140 nM | Bmax ([5]; Figure 2 inset, single representative experiment, Scatchard plot): 6.1 pmol mg-1 protein | Kd ([5]; Figure 2 inset, single representative experiment, Scatchard plot, read-out: Kd): 165 nM | Bmax ([5]; Table I, gastric, grade Mod, pH 7.4, 1 h, 35 °C, median (quartiles)): 1.04 (0.23-6.23) pmol mg-1 protein | Bmax ([5]; Table I, gastric, grade Poor, pH 7.4, 1 h, 35 °C, median (quartiles)): 1.17 (0.67-5.71) pmol mg-1 protein | Bmax ([5]; Table I, gastric, grade Well, pH 7.4, 1 h, 35 °C, one sample): 5.11 pmol mg-1 protein | Bmax ([5]; Table I, gastric, site: Antrum, pH 7.4, 1 h, 35 °C, median (quartiles)): 1.04 (0.67 -3.36) pmol mg-1 protein | Bmax ([5]; Table I, gastric, site: Body, pH 7.4, 1 h, 35 °C, median (quartiles)): 0.83 (0.25 -7.43) pmol mg-1 protein | Bmax ([5]; Table I, gastric, site: Cardia, pH 7.4, 1 h, 35 °C, median (quartiles)): 1.73 (1.23-5.11) pmol mg-1 protein | Bmax ([5]; Table I, gastric, stage I (TNM), pH 7.4, 1 h, 35 °C, one sample): 0.28 pmol mg-1 protein | Bmax ([5]; Table I, gastric, stage II (TNM), pH 7.4, 1 h, 35 °C, median (quartiles)): 0.79 (0.23-1.04) pmol mg-1 protein | Bmax ([5]; Table I, gastric, stage III (TNM), pH 7.4, 1 h, 35 °C, median (quartiles)): 1.24 (0.77-6.11) pmol mg-1 protein | Bmax ([5]; Table I, gastric, stage IV (TNM), pH 7.4, 1 h, 35 °C, one sample): 6.3 pmol mg-1 protein | Bmax, low affinity high capacity binding ([5]; abstract, 22 gastric cancers, Scatchard analysis): 1.2 pmol mg-1 protein | Bmax, high affinity receptors ([5]; one gastric carcinoma (one patient), Scatchard/LIGAND): 0.23 pmol mg-1 protein | Kd ([5]; one gastric carcinoma (one patient), Scatchard/LIGAND, read-out: Kd, high affinity receptors): 0.9 nM | half life in the circulation [6]: less than 3 min

125I-tyrosine-11-somatostatin-14 (AGCKNFFWKTY(125I)TSC; disulfide 3-14; ends not checked; UniProt P61278 103-116, looked up, variant F11Y) [125I-tyr-11-somatostatin-14, radioligand made by Chloramine T iodination of tyr-11-somatostatin-14]
increase in specific bound counts at 35 °C versus 21 °C ([1]; 35 °C versus room temperature (21 °C)): 20-30% | Bmax, low affinity binding ([5]; 22 of 28 tumours, Scatchard/LIGAND, pH 7.4, 1 h, 35 °C, median (quartiles)): 1.2 (0.7-5.7) pmol mg-1 protein | Kd ([5]; 22 of 28 tumours, Scatchard/LIGAND, pH 7.4, 1 h, 35 °C, median (quartiles), read-out: affinity (Kd), low affinity binding): 170 nM
